Results on nine molecules are retold here after patent US9040663B2, “Melanocortin receptor-specific peptides” (AstraZeneca AB, priority 2009, dated 2015).

The structures appear in SMILES notation. “And” between values parts separate entries of the source, which are not always exact repeats. Identical values can stand only once. Like-named read-outs stand apart in the source and are kept apart here.

For series [1], the target named is T1, hMC4-R (Homo sapiens (Human), UniProt P32245). Nature of the series: Competitive inhibition binding assay using [I125]-NDP-α-MSH, hMC4-R. The following applies: membranes of HEK-293 cells expressing recombinant hMC4-R, read-out: MC4-R Ki.
T1 sequence (P32245 whole entry): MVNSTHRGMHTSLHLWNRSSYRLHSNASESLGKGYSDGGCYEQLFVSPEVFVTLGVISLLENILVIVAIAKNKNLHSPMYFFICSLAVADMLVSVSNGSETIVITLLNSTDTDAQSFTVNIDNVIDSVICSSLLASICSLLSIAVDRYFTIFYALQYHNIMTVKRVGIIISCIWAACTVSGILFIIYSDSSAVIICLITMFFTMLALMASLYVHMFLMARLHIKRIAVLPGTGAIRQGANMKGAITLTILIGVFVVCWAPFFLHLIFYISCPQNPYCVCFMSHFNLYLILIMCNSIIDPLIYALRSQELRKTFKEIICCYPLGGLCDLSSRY
The nature of series [2]: Induction of penile erection. The settings on record: male rats; for Total number of PE/rat 0-1 h: mean ± SEM; for % Responders: rats showing at least one erection.
Procedure: 7.5 Induction of Penile Erection.
(§1) The ability of peptides of the present invention to induce penile erection (PE) in male rats was evaluated with selected peptides. Male Sprague-Dawley rats weighing 250-300 g were kept on a 12 hour on/off light cycle with food and water ad libitum. All behavioral studies were performed between 9 a.m. and 4 p.m.
(§2) Corresponding vehicle controls (3.2% mannitol/50 mM Tris buffer) were run in parallel.
In series [3] the target is T1, hMC4-R. In words: High and low density hMC4-R functional assay (cAMP, HEK293-T-REx-MC4-R cells). The following applies: for Emax: NDP-α-MSH = 100%. The format is cell-based.
The nature of series [4]: Food intake and body weight change. The settings on record: male rats, 1.0 mg/kg s.c., mean ± SEM; for BW change 0-24 h: body weight; for FI 0-4 h / FI 0-24 h: food intake. The format is in vivo, Sprague-Dawley rats. As to the method:
7.4 Food Intake and Body Weight Change.
Change in food intake and body weight was evaluated for selected peptides administered by subcutaneous injection route. Male Sprague-Dawley rats were obtained from Hilltop Lab Animals, Inc. (Scottdale, Pa.). Animals were individually housed in conventional polystyrene hanging cages and maintained on a controlled 12 hour on/off light cycle. Water and pelleted food (ProLab RMH 2500, W.F. Fisher & Son Inc.) was provided ad libitum. The rats were dosed subcutaneously with vehicle (3.2% mannitol/50 mM Tris buffer) or selected peptides (1.0 mg/kg). The changes in food intake for the 4 and 24 hour periods after dosing and the changes in body weight for the 24 hour period after dosing were determined. The changes in body weight and food intake for the 48 hour and 72 hour periods after dosing was also measured to determine reversal of changes in body weight and food intake effects back to baseline levels (not shown).

The target of the next series is MC1-R. In words: Competitive inhibition binding assay using [I125]-NDP-α-MSH, MC1-R. The following applies: membranes of B-16 mouse melanoma cells (endogenous MC1-R), in some instances HEK-293 hMC1-R. Summed up:
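Radioligand displacement on membranes from B-16 mouse melanoma cells (endogenous MC1-R) or HEK-293 expressing recombinant hMC1-R, with 0.1 nM [I125]-NDP-α-MSH and increasing peptide concentrations in HEPES pH 7.5 buffer, 60 min at 37° C.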

For series [5] the following is noted: in vivo, sc.
Procedure: 7.5 Induction of Penile Erection.
as §1, §2
The mark [6] stands for this setting: 0.1 ng/mL Doxycycline (low density hMC4-R system).
Where [7] appears, read: 0.1 ng/mL Doxycycline (low density hMC4-R system), read-out: Intrinsic Activity (%).
[8] abbreviates: 10 ng/mL Doxycycline (high density hMC4-R system), read-out: Intrinsic Activity (%).
Setting [9] is: 10 ng/mL Doxycycline (high density hMC4-R system).

In the case of `CC(=O)N[C@@H](CCCNC(=N)N)C(=O)N[C@H]1CCC(=O)NCCC[C@@H](C(N)=O)NC(=O)[C@H](Cc2c[nH]c3ccccc23)NC(=O)[C@H](CCCNC(=N)N)NC(=O)[C@@H](Cc2ccc(C#N)cc2)NC(=O)[C@H](CC(N)=O)NC1=O` [Example 43, Ac-Arg-cyclo(Glu-Asn-D-Phe(4-CN)-Arg-Trp-Orn)-NH2], the Ki on hMC4-R [1] is 5 nM. Further, in series [2] (1.0 mg/kg s.c.), the “Total number of PE/rat 0-1 h” value turned out to be 1.7 ± 0.36 and the “% Responders” value was 29%. Moreover, in series [2] (3.0 mg/kg s.c.), the “Total number of PE/rat 0-1 h” value came to 6.0 ± 0.76 and the “% Responders” value stood at 100%. The molecule also registered an EC50 at hMC4-R [3] (setting [6]) of 1 nM. Besides, the Emax at hMC4-R [3] (setting [7]) was 43%. In addition, the Emax on hMC4-R [3] (setting [8]) stood at 100%. For the same molecule, in series [4], the “BW change 0-24 h” value is listed as 0.45 ± 0.35 g, the “FI 0-4 h” value amounted to 6.85 ± 0.55 g and the “FI 0-24 h” value is 24.44 ± 0.85 g. This molecule also showed an inhibition constant Ki at MC1-R of 870 nM.

Turning to `CC(=O)N[C@@H](CCCNC(=N)N)C(=O)N[C@H]1CCC(=O)NCCC[C@@H](C(N)=O)NC(=O)[C@H](Cc2c[nH]c3ccccc23)NC(=O)[C@H](CCCNC(=N)N)NC(=O)[C@@H](Cc2ccc(C#N)cc2)NC(=O)[C@H](CCC(N)=O)NC1=O` [Example 46, Ac-Arg-cyclo(Glu-Gln-D-Phe(4-CN)-Arg-Trp-Orn)-NH2], the inhibition constant (Ki) on hMC4-R [1] was determined as 4 nM. Besides, the “Total number of PE/rat 0-1 h” value turned out to be 4.9 ± 1.1 in series [5] (1 mg/kg) and 4.4 ± 1.1 in series [5] (3 mg/kg). For the same molecule, the “% Responders” value in series [2] (1.0 mg/kg s.c.) was determined as 100%; in series [2] (3.0 mg/kg s.c.), 86%. The Emax on hMC4-R [3] (setting [7]) is 40%; on hMC4-R [3] (setting [8]) it was 97%. Besides, the “BW change 0-24 h” value in series [4] was -0.29 ± 0.55 g. Moreover, in series [4], the “FI 0-4 h” value is on record as 3.71 ± 0.68 g. The “FI 0-24 h” value in series [4] is 20.56 ± 1.14 g.

With `CC(=O)N[C@@H](CCCNC(=N)N)C(=O)N[C@H]1CCC(=O)NCCC[C@@H](C(N)=O)NC(=O)[C@H](Cc2c[nH]c3ccccc23)NC(=O)[C@H](CCCNC(=N)N)NC(=O)[C@@H](Cc2ccc(F)cc2)NC(=O)[C@@H]2CCCN2C1=O` [Example 67, Ac-Arg-cyclo(Glu-Pro-D-Phe(4-F)-Arg-Trp-Orn)-NH2], the Ki at hMC4-R [1] is 5 nM; at MC1-R, 130 nM. Besides, the “Total number of PE/rat 0-1 h” value in series [2] (1.0 mg/kg s.c.) is reported as 2.3 ± 0.42; in series [2] (3.0 mg/kg s.c.), 3.3 ± 1.0. Also, the “% Responders” value in series [2] (1.0 mg/kg s.c.) stood at 86%; in series [2] (3.0 mg/kg s.c.), 100%. The concentration giving a half-maximal response (EC50) was found to be 1 nM at hMC4-R [3] (setting [6]) and 0.14 nM on hMC4-R [3] (setting [9]). Moreover, the results for the Emax on hMC4-R [3] (setting [7]) and at hMC4-R [3] (setting [8]) were 38% and 99%, respectively. Moreover, the “BW change 0-24 h” value in series [4] is -0.05 ± 0.39 g. Besides, the “FI 0-4 h” value in series [4] came to 4.20 ± 0.66 g. In series [4], the “FI 0-24 h” value is reported as 21.51 ± 1.27 g.

Consider `CC(=O)N[C@H](CCCNC(=N)N)C(=O)N[C@H]1CC(=O)NCCCC[C@@H](C(N)=O)NC(=O)[C@H](Cc2c[nH]c3ccccc23)NC(=O)[C@H](CCCNC(=N)N)NC(=O)[C@@H](Cc2cccc(Cl)c2)NC(=O)[C@H](CCC(N)=O)NC1=O` [Example 80, Ac-D-Arg-cyclo(Asp-Gln-D-Phe(3-Cl)-Arg-Trp-Lys)-NH2], for which the figures for the inhibition constant (Ki) at hMC4-R [1] and at MC1-R were 7 nM and 1750 nM, respectively. For the same molecule, the EC50 was determined as 6 nM at hMC4-R [3] (setting [6]) and 0.65 nM on hMC4-R [3] (setting [9]). Besides, the Emax is 13% at hMC4-R [3] (setting [7]) and 86% at hMC4-R [3] (setting [8]).

For `CC(=O)N[C@@H](CCCNC(=N)N)C(=O)N[C@H]1CCC(=O)NCCC[C@@H](C(N)=O)NC(=O)[C@H](Cc2c[nH]c3ccccc23)NC(=O)[C@H](CCCNC(=N)N)NC(=O)[C@@H](Cc2ccccc2F)NC(=O)[C@H](CC(N)=O)NC1=O` [Example 84, Ac-Arg-cyclo(Glu-Asn-D-Phe(2-Cl)-Arg-Trp-Orn)-NH2], the inhibition constant Ki on hMC4-R [1] was 7 nM; at MC1-R it was 245 nM. Moreover, the results for the Emax on hMC4-R [3] (setting [7]) and at hMC4-R [3] (setting [8]) were 78% and 97%, respectively. At hMC4-R [3] (setting [9]), this molecule showed a concentration giving a half-maximal response (EC50) of 0.09 nM.

`CC(=O)N[C@@H](CCCNC(=N)N)C(=O)N[C@H]1CCC(=O)NCCC[C@@H](C(N)=O)NC(=O)[C@H](Cc2c[nH]c3ccccc23)NC(=O)[C@H](CCCNC(=N)N)NC(=O)[C@@H](Cc2ccccc2C)NC(=O)[C@H](CCC(N)=O)NC1=O` [Example 110, Ac-Arg-cyclo(Glu-Gln-D-Phe(2-Me)-Arg-Trp-Orn)-NH2]: the inhibitory constant (Ki) on hMC4-R [1] was 5 nM; at MC1-R it was 105 nM. Moreover, the EC50 on hMC4-R [3] (setting [6]) came out at 0.6 nM; on hMC4-R [3] (setting [9]), 0.06 nM. Moreover, the results for the Emax on hMC4-R [3] (setting [7]) and on hMC4-R [3] (setting [8]) were 84% and 105%, respectively.

For the molecule `CC(=O)N[C@@H](CCCNC(=N)N)C(=O)N[C@H]1CCC(=O)NCCC[C@@H](C(N)=O)NC(=O)[C@H](Cc2c[nH]c3ccccc23)NC(=O)[C@H](CCCNC(=N)N)NC(=O)[C@@H](Cc2ccccc2C(F)(F)F)NC(=O)[C@H](CCC(N)=O)NC1=O` [Example 114, Ac-Arg-cyclo(Glu-Gln-D-Phe(2-CF3)-Arg-Trp-Orn)-NH2], the Ki on hMC4-R [1] worked out at 8 nM; at MC1-R, 93 nM. Moreover, the EC50 at hMC4-R [3] (setting [6]) amounted to 1 nM. Moreover, the results for the Emax at hMC4-R [3] (setting [7]) and at hMC4-R [3] (setting [8]) were 73% and 117%, respectively.

Regarding `CC(=O)N[C@@H](CCCNC(=N)N)C(=O)N[C@H]1CCCNC(=O)CC[C@@H](C(N)=O)NC(=O)[C@H](Cc2c[nH]c3ccccc23)NC(=O)[C@H](CCCNC(=N)N)NC(=O)[C@@H](Cc2ccccc2C(F)(F)F)NC(=O)[C@H](CCC(N)=O)NC1=O` [Example 115, Ac-Arg-cyclo(Orn-Gln-D-Phe(2-CF3)-Arg-Trp-Glu)-NH2], the Ki at hMC4-R [1] stood at 4 nM; at MC1-R, 235 nM. Moreover, the EC50 turned out to be 0.8 nM on hMC4-R [3] (setting [6]) and 0.17 nM on hMC4-R [3] (setting [9]). Also, the Emax on hMC4-R [3] (setting [7]) was determined as 54%; on hMC4-R [3] (setting [8]), 108%.

Take `CC(=O)N[C@@H](CCCNC(=N)N)C(=O)N[C@H]1CCC(=O)NCCC[C@@H](C(=O)O)NC(=O)[C@H](Cc2c[nH]c3ccccc23)NC(=O)[C@H](CCCNC(=N)N)NC(=O)[C@@H](Cc2ccccc2)NC(=O)[C@H](CCN)NC1=O` [Ref Ex 2, Ac-Arg-cyclo(Glu-Dab-D-Phe-Arg-Trp-Orn)-OH, reference compound]: in series [2] (3.0 mg/kg s.c.), the “Total number of PE/rat 0-1 h” value is recorded as 6.0 ± 0.44 and the “% Responders” value is on record as 100%. In addition, the Emax at hMC4-R [3] (Table 1, mean values, 0.1 ng/mL Doxycycline (low density hMC4-R system), read-out: Intrinsic activity (%)) was determined as 92%. Further, in series [4], the “FI 0-4 h” value was 3.17 ± 0.42 g and 4.41 ± 0.48 g and 2.80 ± 0.27 g; the “FI 0-24 h” value was 19.98 ± 0.60 g and 20.84 ± 1.01 g and 21.81 ± 1.04 g.

The term Ki denotes a measure of affinity in units of concentration, obtained from inhibition or displacement. The term EC50 denotes the concentration at which the effect is half-maximal.
